Reference: patent US7163689B2, “Intravenous valproate for acute treatment of migraine headache” (priority 1999, dated 2007)
Where “and” joins values, the source holds several entries; their conditions need not be identical. Identical values can stand only once. Entries after “also recorded” stand apart in the source; their conditions may differ.

Legend:
Assay type in all cases: in vivo, human
[1] = test system: patients with moderate to severe headaches of 24–72 hours duration; test: Expanded study: IV VPA vs DHE with metoclopramide IM, acute migraine headache (Example 2); conditions: for % Headache Relief: 10 patients per group; for Headache Severity / Nausea/vomiting / Phonophobia / Photophobia: individual patient, sodium; for Headache Severity: grade 0-3; for Nausea/vomiting / Phonophobia / Photophobia: presence
Protocol: This Example describes an expanded study and analysis of the effectiveness of intravenous VPA for the treatment of acute migraine headache of significant duration. Patient data from the pilot study described in Example 1 has been incorporated and further analyzed in addition to new patient data. • Design. […] Patients alternately received intravenous VPA 500 mgs over 15–30 minutes, or dihydroergotamine (“DHE”) 1 mg with metoclopramide 10 mgs intramuscularly (“IM”). Age ranged from 22 to 73 years. Patients rated severity of headache, presence or absence of nausea, photophobia, and phonophobia at 1, 2 and 4 hrs. Table V and Table VI. • Results. In the 10 patients receiving DHE and metoclopramide, 40% had headache relief at 1 hour, 50% at 2 hours, 60% at 4 hours. The percent with nausea at 0, 1, 2, and 4 hours was 60%, 10%, 20%, 30% respectively, photophobia at 0, 1, 2, and 4 hours 100%, 50%, 50%, 40% respectively, phonophobia at 0, 1, 2, and 4 hours 80%, 30%, 50%, 40% respectively. In the 10 patients receiving i.v. VPA, 60% had headache relief at 1 hour, 70% at 2 hours, 70% at 4 hours, the percent with nausea at 0, 1, 2, and 4 hours was 70%, 30% 30%, 20% respectively, photophobia at 0, 1, 2, and 4 hours was 100%, 40%, 40%, 30% respectively, and phonophobia at 0, 1, 2, and 4 hours was 90%, 40%, 40%, 30% respectively. Table VII. • Conclusions. The results of the present study indicate that intravenous VPA is at least as efficacious as DHE for abortive treatment of acute migraine. Accordingly, intravenous VPA offers a treatment option for migraine headache patients who have recently used a triptan or DHE without the risk of drug-drug interaction or cardiovascular complications.

[2] = test system: patients with prolonged moderate to severe migraine; test: Further expanded study (N=40): Depacon vs DHE preceded by metoclopramide, prolonged moderate to severe migraine (Example 3); conditions: for Headache Severity (group value, four grade rating) / Number of Patients Who Reported Nausea / Number of Patients Who Reported Phonophobia / Number of Patients Who Reported Photophobia / Responder Rate / Symptom Free patients (no headache or associated symptomatology), % / Symptom Free patients (no headache or associated symptomatology), number: N = 20 per group
Excerpt: This Example describes a further expanded study and analysis of the effectiveness of intravenous VPA for the treatment of acute migraine headache of significant duration. Patient data from the study described in Examples 1 and 2 have been incorporated and further analyzed in addition to new patient data. • Design and Methods. Participants (N=40) were from age 14 to 74 and were established patients of the Western New England Headache Clinic. Patients called to report the pressure of prolonged moderate to severe migraine. They had no evidence of conditions other than migraine to cause headache and were medically stable. […] Patients received a neurological and general physical examination and filled out a four grade baseline headache rating from developed by Western New England Headache Clinic (see Table 2). The patients then received either 500 mg Depacon™ over 15–30 minutes administered in 100 ccs D5W, or 1 mg DHE intramuscularly preceded by 10 mg metoclopramide intramuscularly. Headache severity and associated symptomatology were rated 1, 2, and 4 hours. Results. A total of 40 patients were randomized, 20 in the Depacon™ group and 20 in the DHE group. Table VII summarizes the number of patients in each group by severity of headache (moderate or severe), demographic data and medication assignment.

[3] = test system: patients with moderate to severe migraine headaches of duration of 24 to 96 hrs; test: Pilot study: IV valproate vs IM DHE with metoclopramide for abortive treatment of acute migraine headache (Example 1); conditions: individual patient, grade 0-3; 24-h; sodium

Q: What does the source list for `CCCC(CCC)C(=O)[O-].[Na+]` [Depacon, valproate sodium]?
A: % experiencing Nausea ([1]; 0-h (baseline)): 70%; % experiencing Phonophobia ([1]; 0-h (baseline)): 90%; % experiencing Photophobia ([1]; 0-h (baseline)): 100%; % experiencing Nausea ([1]; 1-h): 30%; % experiencing Phonophobia ([1]; 1-h): 40%; % experiencing Photophobia ([1]; 1-h): 40%; % experiencing Nausea ([1]; 2-h): 30%; % experiencing Phonophobia ([1]; 2-h): 40%; % experiencing Photophobia ([1]; 2-h): 40%; % experiencing Nausea ([1]; 4-h): 20%; % experiencing Phonophobia ([1]; 4-h): 30%; % experiencing Photophobia ([1]; 4-h): 30%; % Headache Relief ([1]; 1-h): 60%; % Headache Relief ([1]; 2-h): 70%; % Headache Relief ([1]; 4-h): 70%; % Headache Relief ([1]; 24-h): 50%; % experiencing Nausea ([1]; 24-h): 40%; % experiencing Phonophobia ([1]; 24-h): 60%; Headache Severity ([1]; 0-h (baseline), Depacon IV 500 mg or DHE 1 mg IM + Reglan 10 mg IM): 3 (5×) and 2 (5×); Headache Severity ([1]; 1-h): 1 (4×) and 0 (2×) and 2 (2×) and 3 (2×); Headache Severity ([1]; 2-h): 1 (6×) and 2 (3×) and 0; Headache Severity ([1]; 4-h): 0 (3×) and 1 (4×) and 2 (2×) and 3; Headache Severity ([1]; 24-h): 1 (3×) and 2 (4×) and 3 and 0 (2×); Nausea/vomiting ([1]; 0-h (baseline)): 0; Phonophobia ([1]; 0-h (baseline)): 0; Nausea/vomiting ([1]; 1-h): 0; Phonophobia ([1]; 1-h): 0; Photophobia ([1]; 1-h): 0; Nausea/vomiting ([1]; 2-h): 0; Phonophobia ([1]; 2-h): 0; Photophobia ([1]; 2-h): 0; Nausea/vomiting ([1]; 4-h): 0; Phonophobia ([1]; 4-h): 0; Photophobia ([1]; 4-h): 0; Nausea/vomiting ([1]; 24-h): 0; Phonophobia ([1]; 24-h): 0; Photophobia ([1]; 24-h): 0; adverse events ([2]; 20 patients receiving 500 mg Depacon given during 15 to 30 minutes infusion, sodium): remarkably free of adverse event; also recorded: no adverse events; % of Patients Who Reported Nausea ([2]; 1 hour): 53%; % of Patients Who Reported Phonophobia ([2]; 1 hour): 74%; % of Patients Who Reported Photophobia ([2]; 1 hour): 70%; % of Patients Who Reported Nausea ([2]; 2 hours): 53%; % of Patients Who Reported Phonophobia ([2]; 2 hours): 58%; % of Patients Who Reported Photophobia ([2]; 2 hours): 50%; % of Patients Who Reported Nausea ([2]; 4 hours): 47%; % of Patients Who Reported Phonophobia ([2]; 4 hours): 53%; % of Patients Who Reported Photophobia ([2]; 4 hours): 45%; % of Patients Who Reported Nausea ([2]; Baseline): 75%; % of Patients Who Reported Phonophobia ([2]; Baseline): 95%; % of Patients Who Reported Photophobia ([2]; Baseline): 100%; Headache Severity (group value, four grade rating) ([2]; 1 hour): 1.8; Number of Patients Who Reported Nausea ([2]; 1 hour): 8; Number of Patients Who Reported Phonophobia ([2]; 1 hour): 14; Number of Patients Who Reported Photophobia ([2]; 1 hour): 14; Responder Rate ([2]; 1 hour): 50%; Headache Severity (group value, four grade rating) ([2]; 2 hours): 1.5; Number of Patients Who Reported Nausea ([2]; 2 hours): 8; Number of Patients Who Reported Phonophobia ([2]; 2 hours): 11; Number of Patients Who Reported Photophobia ([2]; 2 hours): 10; Responder Rate ([2]; 2 hours): 60%; Headache Severity (group value, four grade rating) ([2]; 4 hours): 1.4; Number of Patients Who Reported Nausea ([2]; 4 hours): 7; Number of Patients Who Reported Phonophobia ([2]; 4 hours): 10; Number of Patients Who Reported Photophobia ([2]; 4 hours): 9; Responder Rate ([2]; 4 hours): 60%; Headache Severity (group value, four grade rating) ([2]; Baseline): 2.7; Number of Patients Who Reported Nausea ([2]; Baseline): 15; Number of Patients Who Reported Phonophobia ([2]; Baseline): 19; Number of Patients Who Reported Photophobia ([2]; Baseline): 20; Symptom Free patients (no headache or associated symptomatology), % ([2]; at 1 hour): 10%; Symptom Free patients (no headache or associated symptomatology), number ([2]; at 1 hour): 2; Symptom Free patients (no headache or associated symptomatology), % ([2]; at 2 hours): 15%; Symptom Free patients (no headache or associated symptomatology), number ([2]; at 2 hours): 3; Symptom Free patients (no headache or associated symptomatology), % ([2]; at 4 hours): 25%; Symptom Free patients (no headache or associated symptomatology), number ([2]; at 4 hours): 5; response of associated symptomatology compared with the DHE group ([2]; baseline, 1, 2 and 4 hours, P>0.05): responded somewhat better, although not statistically significantly; Headache Severity [3]: 1 and 2 (2×) and 3 and 0
